Test system: Wnt1-tdTomato- MEFs
Assay: Conversion of MEFs into ciNCCs with M6 medium (Wnt1-tdTomato lineage tracing)
Assay type: cell-based, mouse
Conditions: added to Chir99021, SB431542 and forskolin (FIG. 8C)
Experimental: The basal medium contained knockout DMEM (Gibco), 10% KSR (Gibco), 10% FBS (Gibco), 1% NEAA (Gibco), and 0.1 mM 2-mercaptoethanol (Gibco) supplemented with the small molecules CHIR99021 (3 μM), SB431542 (5 μM), Forskolin (10 μM), VPA ([…]), EPZ004777 (5 μM), and 5-Aza-dC (0.5 μM). The medium was shaken for 30 min to ensure that all components were fully dissolved.
The MEFs were plated at 5×10^4 cells per well on six-well tissue culture plates in fibroblast medium. The culture plates were precoated with fibronectin or laminin for more than 2 hours. After overnight culture, the medium was exchanged with M6 chemical medium, which was refreshed every 2 days. NCC-like cells appeared and increased at days 3 to 5. After 7 to 10 days of induction, FACS was performed to collect Wnt1^+ cells.
For corneal endothelium is derived from NCCs, a two-step method for reprogramming mouse fibroblasts into CEC-like cells using small molecules was designed, in which the first step was to guide mouse embryonic fibroblasts (MEFs) to be chemically reprogrammed into ciNCCs. To identify small molecules with the potential to convert fibroblasts into ciNCCs, we used a lineage tracing strategy to trace the conversion process and excluded any NCCs or progenitor cells from the starting MEFs (FIGS. 8A and 15A). Wnt1-Cre transgenic mice have been validated as a lineage-tracing reporter model for NCC development. In Wnt1-Cre/ROSA26tdTomato mice, tdTomato protein was faithfully expressed in NCCs. MEFs were thus isolated from Wnt1-Cre/ROSA26tdTomato mice at embryonic day 13.5 (E13.5). Because the NCC population was marked with tdTomato, we performed fluorescence-activated cell sorting (FACS) to collect the tdTomato^− population to exclude any NCCs or progenitors (the purified cells are hereinafter referred to as Wnt1-tdTomato-MEFs; FIG. 15B). We confirmed that the Wnt1-tdTomato^− MEFs were also negative for other NCC markers, including Sox10, P75, Pax3, HNK1, and AP2α (FIGS. 15C and 15D). Further, these Wnt1-tdTomato^− MEFs were negative for typical NSC markers, including Sox2, Pax6 and Nestin (data not shown). […]

| Compound | effect of individual chemical on induction of Wnt1-tdTomato+ cells |
| --- | --- |
| Nc1ncn([C@H]2C[C@H](O)[C@@H](CO)O2)c(=O)n1 [5-Aza-dC] | further promoted induction of Wnt1-tdTomato^+ cells |
| CC(C)N(CCCNC(=O)Nc1ccc(C(C)(C)C)cc1)C[C@H]1O[C@@H](n2ccc3c(N)ncnc32)[C@H](O)[C@@H]1O [EPZ004777] | further promoted induction of Wnt1-tdTomato^+ cells |
| CCCC(CCC)C(=O)O [VPA, Valproic acid] | further promoted induction of Wnt1-tdTomato^+ cells |

Reference: US20230416676A1, “Method for Reprogramming Cell” (Celpaten Consulting Partnership (Limited Partnership), priority 2020, published 2023)
